According to patent US5298494A, “Monosaccharides having anti-proliferation and anti-inflammatory activity, compositions and uses thereof” (Greenwich Pharmaceuticals Incorporated, priority 1993, dated 1994):

Tests used:
[1] = system: LTB4 production by BUD-8 skin cell fibroblasts; experiment: LTB4 production by BUD-8 skin cell fibroblasts (radioimmunoassay); type: cell-based, human
Experimental: (§1) The effect of the compound of the present invention on the proliferative capacity of human BUD-8 skin fibroblasts was measured with the use of a ^3 H-thymidine incorporation assay using culture conditions which were similar to those used for a Con-A blastogenesis assay, described previously. Cultured skin cells were detached from the surface of tissue culture flasks mechanically with a Teflon scraper. The cells were washed, resuspended in incubation medium and the viabilities were determined. These cells were then plated in triplicate at a density of 2×10^3 cells/0.1 ml/microtiter well for the proliferation assay and a density of 1×10^4 cells/0.1 ml/microtiter well for the assays to quantitate PGE2 and LTB4. To these cells was added incubation medium containing indomethacin to inhibit prostaglandin production, or nordihydroguaiaretic acid (NDGA) to inhibit leukotriene production (positive controls).
(§2) After 18 hours of culture, samples of the BUD-8 skin cell supernatants were collected from one set of microtiter plates and frozen until assayed for PGE2 or for LTB4 content using the radioimmunoassays described below.
Levels of LTB4 in aliquots of BUD-8 skin cell cultures supernatants were quantitated by radioimmunoassay (New England Nuclear). Briefly, into each polyproplyene tube were mixed 0.1 ml anti-LTB4, 0.1. ml ^3 H-LTB4 and 0.1 ml LTB4 standard or LTB4 containing sample. The BUD-8 skin cell culture supernatants were used directly in the radioimmunoassay. Tubes were refrigerated overnight. A charcoal solution (0.5 ml of 0.5% charcoal Norit A) was added and each tube was centrifuged. The radioactivity in the supernatant was then counted in a liquid scintillation counter.

[2] = system: BUD-8 human skin fibroblasts; experiment: Fibroblast assay: proliferation of BUD-8 skin cell fibroblasts; type: cell-based
Experimental: The human skin cell fibroblast line, BUD-8 was obtained prior to each assay from the American Type Culture Collection. This is a fibroblast-like cell line which was originally derived from the normal skin of a person.
(§3) BUD-8 cell cultures were expanded for use in 25 cm^2 flasks at 37° C. in an atmosphere of 5% CO2 in air. At approximately 4-5 five day intervals, or when confluence was reached, the cells were passaged. This was accomplished by detaching the cells with a Teflon scraper, washing and reseeding the cells at a lower density into fresh tissue culture flasks.
as §1
After 3 days of culture, 1 uCi ^3 H-thymidine was added in a 50 ul volume to each culture well of the microtiter plates. Eighteen hours later, each of the BUD-8 cultures was examined morphologically for evidence of compound-induced toxicity such as cell rounding or granularity. The thymidine-pulsed cells were then precipitated and the amount of ^3 H-thymidine incorporated was counted in a liquid scintillation counter.
The concentrations of the compounds of the invention which were used in these assays were:
The incubation medium used for culturing the BUD-8 cells was RPMI-1640 medium containing 10% fetal bovine serum, 100 ug/ml streptomycin, 100 U/ml penicillin, 0.2M Hepes buffer solution, 5×10^-5 M 2-mercaptoethanol and 2 mM glutamine.

[3] = system: GS-109-V-20 human skin cell fibroblasts; experiment: Fibroblast assay: proliferation of GS-109-V-20 skin cell fibroblasts; type: cell-based
Experimental: The effect of methyl 3-O-3'-(N',N'-dimethylamino-n-propyl)-6-deoxy-D-glucopyranoside on the proliferative capacity of human GS-109-V-20 skin fibroblasts was measured with the use of ^3 H-thymidine incorporation assay. Cultured skin cells were detached from the surface of tissue culture flasks mechanically with a Teflon scraper. The cells were washed, resuspended in incubation medium and the viabilities determined. These cells were then plated in triplicate at a density of 1×10^3 cells/0.1 ml/microtiter well. To these cells was added 0.1 ml incubation medium containing the methyl 3-O-3'-(N',N'-dimethylamino-n-propyl)-6-deoxy-D-glucopyranoside compound.
After 3 days of culture, 1#uCi ^3 H-thymidine was added in 50 ul volume to each culture well of the microtiter plates. Eighteen hours later, each of the GS-109-V-20 cultures was examined morphologically for evidence of drug-induced toxicity such as cell rounding or granularity. The ^3 H-thymidine-pulsed cells were then precipitated and the amount of ^3 H-thymidine incorporation was counted on a liquid scintillation counter.
Methyl 3-O-3'-(N',N'-dimethylamino-n-propyl)-6-deoxy-D-glucopyranoside was suspended directly into the medium by extensive sonication, without being filter-sterilized. A range of doses of this compound was used to measure effects of this compound upon GS-109-V-20 cell proliferation. The following doses were used:
The human skin cell fibroblast line, GS-109-V-20, was obtained from the American Type Culture-Collection. […] These cells were selected for use because they are considered to exist in an initiated state, as opposed to being normal or transformed, and have a more extensive population doubling time and survival period in culture than do normal fibroblasts. In this regard, they would more closely reflect the biological characteristics of psoriatic or rheumatoid synovial fibroblasts which also proliferate more extensively than do normal fibroblasts, but not as extensively as immortalized transformed tumor cells.
as §3, with “The number of GS-109-V-20 cells was” for “BUD-8 cell cultures were”, “use in the described assays by culture” for “use”, “4-5” for “4-5 five”, “by trypsinization,” for “with a Teflon scraper,”

[4] = system: PGE2 production by BUD-8 skin cell fibroblasts; experiment: PGE2 production by BUD-8 skin cell fibroblasts (radioimmunoassay); type: cell-based, human
Experimental: as §1, §2
A radioinmunoassay (New England Nuclear) was used to quantitate PGE2 levels in BUD-8 skin cell culture supernatants. Briefly, into each polypropylene tube were mixed 0.1 ml anti-PGE2, 0.1 ml ^125 1-PGE2 and 0.1 ml PGE2 standard or PGE2 containing sample. The BUD-8 skin culture supernatants were diluted 1:2 prior to addition to the radioimmunoassay. Tubes were refrigerated overnight. A polyethylene glycol solution (16%, 6,000 m.w.) was then added to precipitate immune complexes and the radioactivity in the precipitate was counted in a gamma counter.

[5] = system: T lymphocytes (normal mouse spleen cells) stimulated with ConA; experiment: Mouse Spleen Cell ConA Blastogenesis Assay; type: cell-based, mouse (C57Bl/6); details: control compound, concentration not given
[6] = concentration not given, 1080 min

## COc1ccc2c(c1)c(CC(=O)O)c(C)n2C(=O)c1ccc(Cl)cc1 [Indo., indomethacin, reference compound]
[1]; concentration not given
  LTB4 in supernatant (positive control): 39.4 ± 5.3 pg LTB4 100 ul supernatant
  calculated LTB4 production/10^5 BUD-8 cells (positive control): 1,771 pg per 10^5 cells
[1]; [6]
  % effect on LTB4 production (positive control): +10%
[2]; concentration not given
  % effect on BUD-8 proliferation (positive control): -17%
  ^3 H-Thymidine uptake by BUD-8 skin cells (positive control): 6,043 ± 184 cpm
[3]; 2 × 10^-6 M Indomethacin, 2 × 10^-6 N NDGA
  ^3 H-Thymidine uptake by GS-109-V-20 skin cells (control compound): 3,317 ± 351 cpm
[3]; Homo sapiens, Fibroblast, read-out: % effect on GS-109-V-20 proliferation (control compound)
  inhibition at 2 µM: 14%
[4]; concentration not given
  PGE2 in supernatant (positive control): 5.3 ± 0.5 pg PGE2 /50 ul supernatant
  calculated PGE2 production/10^5 BUD-8 cells (positive control): 187 pg per 10^5 cells
[4]; [6]
  % effect on PGE2 production (positive control): -66%
[5]; ConA 1 ug/ml
  % effect on ConA blastogenic response (positive control): +4%
  Blastogenic response of normal spleen cells to Con-A (positive control): 57.7 ± 8.7 × 10^-3 cpm
[5]; ConA 4 ug/ml
  % effect on ConA blastogenic response (positive control): -17%
  Blastogenic response of normal spleen cells to Con-A (positive control): 70.0 ± 5.6 × 10^-3 cpm

## CC1(C)OC2OC3C(O)COC3(O)C2O1 [IV, (3S) 1,2-O-isopropylidene-α-D-ribo-hexos-3-ulose-1,4:3,6-difuranose]
[1]
  effect on LTB4 production in words: significantly decrease of levels of both pro-inflammatory mediators are seen at several non-toxic doses
[1]; 1 ug/ml
  LTB4 in supernatant (Table XXI): 36.4 ± 5.2 pg LTB4 100 ul supernatant
  calculated LTB4 produced/10^5 BUD-8 cells: 1,621 pg per 10^5 cells
[1]; 10 ug/ml
  LTB4 in supernatant (Table XXI): 19.9 ± 3.8 pg LTB4 100 ul supernatant
[1]; 25 ug/ml
  LTB4 in supernatant (Table XXI): 17.7 ± 3.8 pg LTB4 100 ul supernatant
  calculated LTB4 produced/10^5 BUD-8 cells: 683 pg per 10^5 cells
[1]; 100 ug/ml
  LTB4 in supernatant (Table XXI): 17.3 ± 0.9 pg LTB4 100 ul supernatant
  calculated LTB4 produced/10^5 BUD-8 cells: 665 pg per 10^5 cells
[1]; 300 ug/ml
  LTB4 in supernatant (Table XXI): 25.7 ± 5.0 pg LTB4 100 ul supernatant
  calculated LTB4 produced/10^5 BUD-8 cells: 1,083 pg per 10^5 cells
[1]; 750 ug/ml
  LTB4 in supernatant (Table XXI): 23.5 ± 0.2 pg LTB4 100 ul supernatant
  calculated LTB4 produced/10^5 BUD-8 cells: 973 pg per 10^5 cells
[1]; Homo sapiens, Fibroblast, 18 h, 1 ug/ml, read-out: % Effect on LTB4 production
  inhibition at 1 µg/mL: -2%
[1]; Homo sapiens, Fibroblast, 18 h, 10 ug/ml, read-out: % Effect on LTB4 production
  inhibition at 10 µg/mL: 45%
[1]; Homo sapiens, Fibroblast, 18 h, 25 ug/ml, read-out: % Effect on LTB4 production
  inhibition at 25 µg/mL: 51%
[1]; Homo sapiens, Fibroblast, 18 h, 100 ug/ml, read-out: % Effect on LTB4 production
  inhibition at 100 µg/mL: 52%
[1]; Homo sapiens, Fibroblast, 18 h, 300 ug/ml, read-out: % Effect on LTB4 production
  inhibition at 300 µg/mL: 28%
[1]; Homo sapiens, Fibroblast, 18 h, 750 ug/ml, read-out: % Effect on LTB4 production
  inhibition at 750 µg/mL: 35%
[2]; 1 ug/ml
  ^3 H-Thymidine uptake by BUD-8 skin cells: 3,607 ± 87 cpm
[2]; 10 ug/ml
  ^3 H-Thymidine uptake by BUD-8 skin cells: 4,077 ± 374 cpm
[2]; 25 ug/ml
  ^3 H-Thymidine uptake by BUD-8 skin cells: 3,791 ± 451 cpm
[2]; 100 ug/ml
  ^3 H-Thymidine uptake by BUD-8 skin cells: 4,032 ± 3 cpm
[2]; 300 ug/ml
  ^3 H-Thymidine uptake by BUD-8 skin cells: 2,882 ± 387 cpm
[2]; 750 ug/ml
  ^3 H-Thymidine uptake by BUD-8 skin cells: 2,658 ± 247 cpm
[2]; Homo sapiens, Skin fibroblast, 1 ug/ml, read-out: % Effect on BUD-8 proliferation
  inhibition at 1 µg/mL: 51%
[2]; Homo sapiens, Skin fibroblast, 10 ug/ml, read-out: % Effect on BUD-8 proliferation
  inhibition at 10 µg/mL: 44%
[2]; Homo sapiens, Skin fibroblast, 25 ug/ml, read-out: % Effect on BUD-8 proliferation
  inhibition at 25 µg/mL: 48%
[2]; Homo sapiens, Skin fibroblast, 100 ug/ml, read-out: % Effect on BUD-8 proliferation
  inhibition at 100 µg/mL: 45%
[2]; Homo sapiens, Skin fibroblast, 300 ug/ml, read-out: % Effect on BUD-8 proliferation
  inhibition at 300 µg/mL: 61%
[2]; Homo sapiens, Skin fibroblast, 750 ug/ml, read-out: % Effect on BUD-8 proliferation
  inhibition at 750 µg/mL: 64%
[4]
  effect on PGE2 production in words: significantly decrease of levels of both pro-inflammatory mediators are seen at several non-toxic doses
[4]; 1 ug/ml
  PGE2 in supernatant: 7.1 ± 1.0 pg PGE2 /50 ul supernatant
  calculated PGE2 produced/10^5 BUD-8 cells: 336 pg per 10^5 cells
[4]; 10 ug/ml
  PGE2 in supernatant: 7.5 ± 0.9 pg PGE2 /50 ul supernatant
[4]; 25 ug/ml
  calculated PGE2 produced/10^5 BUD-8 cells: 366 pg per 10^5 cells
[4]; 100 ug/ml
  PGE2 in supernatant: 13.6 ± 4.4 pg PGE2 /50 ul supernatant
  calculated PGE2 produced/10^5 BUD-8 cells: 850 pg per 10^5 cells
[4]; 300 ug/ml
  PGE2 in supernatant: 23.7 ± 1.5 pg PGE2 /50 ul supernatant
  calculated PGE2 produced/10^5 BUD-8 cells: 1654 pg per 10^5 cells
[4]; 750 ug/ml
  PGE2 in supernatant: 4.0 ± 0.5 pg PGE2 /50 ul supernatant
  calculated PGE2 produced/10^5 BUD-8 cells: 82 pg per 10^5 cells
[4]; Homo sapiens, Fibroblast, 18 h, 1 ug/ml, read-out: % Effect on PGE2 production
  inhibition at 1 µg/mL: 51%
[4]; Homo sapiens, Fibroblast, 18 h, 10 ug/ml, read-out: % Effect on PGE2 production
  inhibition at 10 µg/mL: 52%
[4]; Homo sapiens, Fibroblast, 18 h, 25 ug/ml, read-out: % Effect on PGE2 production
  inhibition at 25 µg/mL: 52%
[4]; Homo sapiens, Fibroblast, 18 h, 100 ug/ml, read-out: % Effect on PGE2 production
  inhibition at 100 µg/mL: 59%
[4]; Homo sapiens, Fibroblast, 18 h, 300 ug/ml, read-out: % Effect on PGE2 production
  inhibition at 300 µg/mL: 67%
[4]; Homo sapiens, Fibroblast, 18 h, 750 ug/ml, read-out: % Effect on PGE2 production
  inhibition at 750 µg/mL: 65%
